Measurements published in patent publication US7173129B2, “Sulfonamide-substituted chalcone derivatives and their use to treat diseases” (Athero Genics, Inc., priority 2003, dated 2007).

What was measured:
VCAM-1 = test: In Vitro VCAM-1 Assay (TNF-α stimulated endothelial cells, cell-surface ELISA); format: cell-based; settings: primary human aortic (HAEC) or pulmonary (HPAEC) endothelial cells, TNF-α 1 ng/ml, approximately 16 hours, ELISA OD 450 nm
Protocol: Cell Culture and compound dosing: Cultured primary human aortic (HAEC) or pulmonary (HPAEC) endothelial cells were obtained from Clonetics, Inc., and were used below passage 9. Cells were seeded in 96 well plates such that they would reach 90–95% confluency by the following day. On the following day the cells were stimulated with TNF-α (1 ng/ml) in the presence or absence of compounds dissolved in DMSO such that the final concentration of DMSO is 0.25% or less. To establish a dose curve for each compound, four concentrations in 2- to 5-fold increments were used. Cells were exposed to TNF-α and compounds for approximately 16 hours. The next day the cells were examined under microscope to score for visual signs of toxicity or cell stress.
Following 16 hr exposure to TNF-α and compound the media was discarded and the cells were washed once with Hanks Balanced Salt Solution (HBSS)/Phosphate buffered saline (PBS) (1:1). Primary antibodies against VCAM-1 (0.25 μg/ml in HBSS/PBS+5% FBS) were added and incubated for 30–60 minutes at 37° C. Cells were washed with HBSS/PBS three times, and secondary antibody Horse Radish Peroxidase (HRP)-conjugated goat anti-mouse IgG (1:500 in HBSS/PBS+5% FBS) were added and incubated for 30 minutes at 37° C. Cells were washed with HBSS/PBS four time and TMB substrate were added and incubated at room temperature in the dark until there was adequate development of blue color. The length of time of incubation was typically 5–15 minutes. 2N sulfuric acid was added to stop the color development and the data was collected by reading the absorbance on a BioRad ELISA plate reader at OD 450 nm. The results are expressed as IC50 values (the concentration (micromolar) of compound required to inhibit 50% of the maximal response of the control sample stimulated by TNF-α only).

[1] = Homo sapiens, Endothelial cell, 16 h

melting point | IC50 (VCAM-1; sodium salt) | IC50 (VCAM-1; [1]) | SMILES
240 to 250 °C | < 5 µM |  | COc1cc(OC)c(-c2cc3ccccc3[nH]2)cc1/C=C/C(=O)c1ccc(S(=O)(=O)[N-]C(C)=O)cc1.[Na+] [Example 43, N-Acetyl-4-{3E-[5-(1H-indol-2-yl)-2,4-dimethoxyphenyl]acryloyl}benzenesulfonamide sodium salt]
189 to 190 °C |  | > 10 µM | COc1cc(OC)c(-c2cc3ccccc3[nH]2)cc1/C=C/C(=O)c1ccc(S(=O)(=O)NCC(=O)O)cc1 [Example 51, (4-{3E-[5-(1H-Indol-2-yl)-2,4-dimethoxyphenyl]acryloyl}benzenesulfonylamino)acetic acid]
120 to 122 °C |  | < 10 µM | COc1cc(OC)c(-c2cc3ccccc3n2C)cc1/C=C/C(=O)c1ccc(S(=O)(=O)N(C)C)cc1 [Example 31, 4-{3E-[2,4-Dimethoxy-5-(1-methyl-1H-indol-2-yl)phenyl]acryloyl}-N,N-dimethylbenzenesulfonamide]
